In one data set the target is T1, PHD2 (Homo sapiens, UniProt Q9GZT9).
T1 construct: FLAG-tagged full length PHD2 expressed in and purified from baculovirus-infected Sf9 cells; FLAG; made in house; host or cells: baculovirus-infected Sf9 cells
As to the kind of experiment: PHD2 / HIF-1α peptide time resolved fluorescence inhibition assay. In kind it is biochemical. On the procedure:
To each well of a 96-well plate was added 1 μL of test compound in DMSO and 20 μl of assay buffer (50 mM Tris pH 7.4/0.01% Tween-20/0.1 mg/ml bovine serum albumin/10 μM ferrous sulfate/1 mM sodium ascorbate/20 μg/ml catalase) containing 0.15 μg/ml FLAG-tagged full length PHD2 expressed in and purified from baculovirus-infected Sf9 cells. After a 30 min preincubation at room temperature, the enzymatic reactions were initiated by the addition of 4 μL of substrates (final concentrations of 0.2 μM 2-oxoglutarate and 0.5 μM HIF-1α peptide biotinyl-DLDLEMLAPYIPMDDDFQL). After 2 hr at room temperature, the reactions were terminated and signals were developed by the addition of a 25 μL quench/detection mix to a final concentration of 1 mM ortho-phenanthroline, 0.1 mM EDTA, 0.5 nM anti-(His)6 LANCE reagent (Perkin-Elmer Life Sciences), 100 nM AF647-labeled streptavidin (Invitrogen), and 2 μg/ml (His)6-VHL complex (S. Tan (2001) Protein Expr. Purif. 21, 224-234). The ratio of time resolved fluorescence signals at 665 and 620 nm was determined, and percent inhibition was calculated relative to an uninhibited control sample run in parallel.

The nature of data set [1]: Pharmacokinetics after intravenous dosing in dogs (plasma concentrations by LC-MS/MS). The following applies: dog (beagle), 0.5 mg/kg intravenously. Format: in vivo, dogs (beagles). On the procedure: The pharmacokinetics of Example 1 (E-1) was evaluated, and compared to that of Example 163 and Example 190 both disclosed in International PCT Application, No. PCT/US09/036,501, filed Mar. 9, 2009. Compounds were formulated in a 1:1 solution (by volume) of PEG200: water and dosed at 0.5 mg/kg of body weight. The formulation was dosed intravenously in 2 dogs (beagles), and blood was drawn at the following time points (hours) 0.08, 0.25, 0.5, 1, 2, 4, 6, 8, 24. The plasma concentrations shown in the table below were determined by protein precipitation followed by liquid chromatography—tandem mass spectrometry analysis.

T1 sequence (Q9GZT9 whole entry): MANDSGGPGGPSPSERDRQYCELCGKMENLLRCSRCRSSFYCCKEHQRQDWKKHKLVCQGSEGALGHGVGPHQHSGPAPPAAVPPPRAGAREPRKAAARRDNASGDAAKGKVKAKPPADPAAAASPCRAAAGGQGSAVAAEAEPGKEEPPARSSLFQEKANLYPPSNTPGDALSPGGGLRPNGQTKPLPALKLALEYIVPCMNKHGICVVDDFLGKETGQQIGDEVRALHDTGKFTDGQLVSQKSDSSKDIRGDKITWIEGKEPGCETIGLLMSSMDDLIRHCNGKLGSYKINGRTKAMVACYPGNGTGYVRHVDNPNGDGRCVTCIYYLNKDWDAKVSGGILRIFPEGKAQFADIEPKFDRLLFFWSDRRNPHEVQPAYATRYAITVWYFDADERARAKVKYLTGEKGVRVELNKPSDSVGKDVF

Turning to `COc1ccc(C(NC(=O)c2cnc(-c3cccnn3)nc2O)C2CCOCC2)cn1` (single isomer, unassigned) [Example 1, (R)- or (S)-4-Hydroxy-N-[(6-methoxypyridin-3-yl)(tetrahydro-2H-pyran-4-yl)methyl]-2-pyridazin-3-ylpyrimidine-5-carboxamide], on PHD2 (range printed in mixed units (nanomolar to micromolar)), the “IC50, inhibition of the interaction between PHD2 and a HIF peptide” value lay in the range of 0.1 to 10000 nM. For the same compound, the half-inhibitory concentration (IC50) (in general, the point on the concentration scale where inhibition reaches its midpoint) at PHD2 (read-out: PHD2 binding activity expressed as IC50) was ≤ 10 nM. For the same compound, in data set [1], the MRT (as a rule, a mean duration of stay, worked out from the concentration-time curve) amounted to 7.93 h and the clearance – broadly, the volume of plasma or blood freed of the substance per unit of time – worked out at 1.35 mL/min/kg. In data set [1] (PEG200:water 1:1, time 0.08 hours), this compound gave a concentration at 0.08 h of 2230 nM. Further, the half-life in data set [1] (read-out: T ½ (converted)) was 6.07 h. This compound returned a concentration at 0.25 h in data set [1] (time 0.25 hours) of 2060 nM. This compound gave a concentration at 0.5 h in data set [1] (time 0.50 hours) of 1960 nM. For the same compound, the concentration at 1 h in data set [1] (time 1.00 hours) was 1660 nM. This compound displayed a concentration at 2 h in data set [1] (time 2.00 hours) of 1390 nM. Further, in data set [1] (time 4.00 hours), the concentration at 4 h worked out at 1320 nM. Besides, the concentration at 6 h in data set [1] (time 6.00 hours) turned out to be 917 nM. Moreover, the concentration at 8 h in data set [1] (time 8.00 hours) came to 504 nM. The compound further came in with a concentration at 24 h in data set [1] (time 24.00 hours) of 100 nM.
